Values of other authors in patent US20240139257A1, “METHODS AND COMPOSITIONS FOR ALOPECIA TREATMENT USING FIBROBLASTS AND FIBROBLAST-DERIVED PRODUCTS” (FIGENE, LLC, priority 2021, published 2024).

How the values were obtained:
IL-8 mRNA = conditions: scalp biopsies, AA patients, after successful DCP treatment
[1] = tested on: interferon (IFN)-gamma mRNA; conditions: scalp biopsies, AA patients, after successful DCP treatment; still above the constitutive level found in controls
IL-10 mRNA = conditions: scalp biopsies, AA patients, after successful DCP treatment
[2] = tested on: tumor necrosis factor-alpha mRNA; conditions: scalp biopsies, AA patients, after successful DCP treatment
IL-2 mRNA = conditions: scalp biopsies, AA patients, after successful DCP treatment

**Q.** For `O=c1c(-c2ccccc2)c1-c1ccccc1` [DCP, diphenylcyclopropenone], which “mRNA expression of IL-8 after DCP treatment” value (IL-8 mRNA) is on record?
**A.** Its value is “increased”.

**Q.** And the “IFN-gamma expression after DCP treatment” value [1]?
**A.** Its value is “reduced”.

**Q.** What about the “mRNA expression of IL-10 after DCP treatment” value (IL-10 mRNA) of the same molecule?
**A.** Its value is “increased”.

**Q.** And the “mRNA expression of tumor necrosis factor-alpha after DCP treatment” value [2]?
**A.** Its value is “increased”.

**Q.** What about the “Therapeutic benefit of topical immunotherapy in AA patients” value (alopecia areata (AA)) of the same molecule?
**A.** Its value is “some therapeutic benefits”.

**Q.** And the “mRNA expression of IL-2 after DCP treatment” value (IL-2 mRNA)?
**A.** The value was “increased”.
